Assay results published in ChEMBL document CHEMBL4229567, “Aiming to Miss a Moving Target: Bromo and Extra Terminal Domain (BET) Selectivity in Constrained ATAD2 Inhibitors” (J Med Chem, 2018).

Key:
[1] = biological target: Bromodomain-containing protein 4 (Homo sapiens, UniProt O60885); test: Inhibition of 6His-tagged Thr-BRD4 (BD1) (1 to 477 residues) (unknown origin) expressed in Escherichia coli BL21(DE3) after 30 mins in presence of biotinylated triacetylated histone H4 peptide by alexa fluor 647 dyse based TR-FRET assay
[2] = biological target: T1, ATPase family AAA domain-containing protein 2 (Homo sapiens, UniProt Q6PL18); test: Inhibition of N-terminal FLAG-6His-tagged TEV-fused ATAD2 (981 to 1121 residues) (unknown origin) expressed in Escherichia coli BL21(DE3) after 30 mins in presence of biotinylated triacetylated histone H4 peptide by alexa fluor 488-dye based TR-FRET assay
T1 sequence (Q6PL18 whole entry): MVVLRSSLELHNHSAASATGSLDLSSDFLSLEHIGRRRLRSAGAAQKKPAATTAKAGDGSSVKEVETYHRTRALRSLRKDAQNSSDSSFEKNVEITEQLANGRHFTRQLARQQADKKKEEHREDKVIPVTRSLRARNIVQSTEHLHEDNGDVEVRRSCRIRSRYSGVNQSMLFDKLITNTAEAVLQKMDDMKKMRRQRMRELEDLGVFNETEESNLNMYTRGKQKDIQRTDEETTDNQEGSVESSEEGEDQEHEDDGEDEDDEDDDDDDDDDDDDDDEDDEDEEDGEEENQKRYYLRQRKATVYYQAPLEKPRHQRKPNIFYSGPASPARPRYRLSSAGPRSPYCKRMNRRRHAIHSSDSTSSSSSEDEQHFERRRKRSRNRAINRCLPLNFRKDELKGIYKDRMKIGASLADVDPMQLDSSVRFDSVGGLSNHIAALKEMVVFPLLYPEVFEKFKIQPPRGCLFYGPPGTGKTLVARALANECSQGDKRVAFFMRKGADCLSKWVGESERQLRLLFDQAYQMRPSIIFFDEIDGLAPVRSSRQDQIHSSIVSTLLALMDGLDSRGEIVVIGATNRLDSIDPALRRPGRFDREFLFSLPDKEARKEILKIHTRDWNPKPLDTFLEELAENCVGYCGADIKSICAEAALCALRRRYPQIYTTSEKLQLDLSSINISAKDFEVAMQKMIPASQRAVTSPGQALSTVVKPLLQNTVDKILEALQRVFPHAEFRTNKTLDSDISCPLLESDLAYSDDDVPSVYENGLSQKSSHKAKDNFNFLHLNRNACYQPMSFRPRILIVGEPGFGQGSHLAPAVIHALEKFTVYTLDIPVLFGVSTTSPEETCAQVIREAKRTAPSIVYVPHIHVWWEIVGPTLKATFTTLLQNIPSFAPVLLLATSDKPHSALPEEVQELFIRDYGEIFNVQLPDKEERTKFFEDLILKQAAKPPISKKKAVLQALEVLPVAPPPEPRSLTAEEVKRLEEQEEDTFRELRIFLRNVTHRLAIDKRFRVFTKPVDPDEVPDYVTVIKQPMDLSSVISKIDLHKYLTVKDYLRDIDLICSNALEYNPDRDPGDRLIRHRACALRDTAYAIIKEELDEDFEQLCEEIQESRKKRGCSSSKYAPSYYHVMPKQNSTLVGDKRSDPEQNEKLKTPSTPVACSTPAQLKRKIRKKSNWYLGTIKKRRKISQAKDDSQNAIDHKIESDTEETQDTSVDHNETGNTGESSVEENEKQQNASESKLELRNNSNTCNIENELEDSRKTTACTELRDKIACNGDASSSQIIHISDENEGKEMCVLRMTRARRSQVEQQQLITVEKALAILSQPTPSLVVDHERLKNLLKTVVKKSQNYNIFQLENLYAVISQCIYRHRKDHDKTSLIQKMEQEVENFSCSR

SMILES | IC50 [1] | IC50 [2]
Cc1cncc(-c2cnc(N[C@@H]3CCNC[C@H]3OCC3CCOCC3)c3[nH]c(=O)c(C)cc23)c1 | 10 µM | 
CO[C@@H]1CNCC[C@H]1Nc1nccc2cc(C)c(=O)[nH]c12 | 5.01 µM | 
CO[C@H]1CNC[C@@H](OC)[C@@H]1Nc1nccc2cc(C)c(=O)[nH]c12 | 25.1 µM | 25100 nM
Cc1cncc(-c2ccc(N[C@@H]3CCNC[C@H]3OCC3CCC(F)(F)CC3)c3[nH]c(=O)c(C)cc23)c1 | 6.31 µM | 39.8 nM
CO[C@H]1CNC[C@@H](OCC2CCS(=O)(=O)CC2)[C@@H]1Nc1ncc(-c2cncc(C)c2)c2cc(C)c(=O)[nH]c12 | 158 µM | 126 nM

The next lines start with the values.

IC50 [1] | IC50 [2] | SMILES
3.98 µM |  | Cc1cc2ccnc(N[C@@H]3CCNC[C@H]3OCC3CCCCC3)c2[nH]c1=O
7.94 µM | 251 nM | Cc1cncc(-c2cnc(N[C@@H]3C[C@H]4CC[C@H](N4)[C@H]3CCC3CCOCC3)c3[nH]c(=O)c(C)cc23)c1
5.01 µM | 100 nM | Cc1cncc(-c2cnc(N[C@@H]3C[C@H]4CC[C@H](N4)[C@H]3CCC3CCC(F)(F)CC3)c3[nH]c(=O)c(C)cc23)c1
> 50.1 µM | 251 nM | Cc1cncc(-c2cnc(N[C@@H]3C[C@H]4CC[C@H](N4)[C@H]3CCC3CCS(=O)(=O)CC3)c3[nH]c(=O)c(C)cc23)c1
31.6 µM | 200 nM | CO[C@H]1CNC[C@@H](OCC2CCOCC2)[C@@H]1Nc1ncc(-c2cncc(C)c2)c2cc(C)c(=O)[nH]c12
5.01 µM | 251 nM | Cc1cncc(-c2ccc(N[C@@H]3C[C@H]4CC[C@H](N4)[C@H]3CCC3CCS(=O)(=O)CC3)c3[nH]c(=O)c(C)cc23)c1
